{"source": "patent US20100113469A1", "about": "“COMBINATION THERAPY FOR THE TREATMENT-OF LOWER URINARY TRACT SYMPTOMS” (MERCK & CO., INC., priority 2007, published 2010)", "origin": "cited, not measured here", "key": {"rats [1]": {"tested_on": "rats", "settings": "detrusor instability paradigm, oral"}, "rats [2]": {"tested_on": "rats", "settings": "hyperreflexia paradigms, intravenous"}, "rats [3]": {"tested_on": "rats", "settings": "intravenous"}, "patients": {"tested_on": "patients", "settings": "instilled directly into the bladder"}, "human bladders": {"tested_on": "human bladders", "settings": "in vitro"}, "rats [4]": {"tested_on": "rats"}}, "data": [{"smiles": "C[C@H](Cc1ccc2c(c1)OC(C(=O)[O-])(C(=O)[O-])O2)NC[C@H](O)c1cccc(Cl)c1.[Na+].[Na+]", "note": "[CL316243]", "values": [{"measurement": "spontaneous bladder contractions", "setting": "rats [1]", "value": "dose-dependent inhibition of spontaneous bladder contractions"}, {"measurement": "voiding interval", "setting": "rats [2]", "value": "dose-dependently normalizes voiding interval"}, {"measurement": "bladder pressure", "setting": "rats [3]", "value": "reduces bladder pressure"}, {"measurement": "bladder capacity", "setting": "rats [3]; cystometric studies", "value": "increases bladder capacity"}, {"measurement": "residual urine volume", "setting": "rats [3]; cystometric studies", "value": "without increasing residual urine volume"}]}, {"smiles": "COc1cc(CNC(=O)CCCC/C=C/C(C)C)ccc1O", "note": "[Capsaicin, capsaicin]", "values": [{"measurement": "patients with beneficial effects (i.e. increased bladder capacity)", "setting": "patients", "value": "~70", "unit": "%"}]}, {"smiles": "CCCCCCNC(=O)Nc1ccc(S(=O)(=O)Nc2ccc(CCNC[C@H](O)COc3ccc(O)cc3)cc2)cc1", "note": "[L-755507]", "values": [{"measurement": "relaxation evoked in control versus obstructed human bladders", "setting": "human bladders", "value": "equivalent"}]}, {"smiles": "COc1ccccc1CC(=N)N1C[C@@H]2C(=O)CCC(c3ccccc3)(c3ccccc3)[C@@H]2C1", "note": "[RP 67580]", "values": [{"measurement": "volume threshold", "setting": "rats [4]; cyclophosphamide-induced bladder overactivity, i.t. vs i.v.", "value": "increased the volume threshold after i.t., but not i.v. administration"}]}, {"smiles": "C=C(C)[C@]12C[C@@H](C)[C@@]34O[C@](Cc5ccccc5)(O[C@@H]1[C@@H]3C=C(COC(=O)Cc1ccc(O)c(OC)c1)C[C@]1(O)C(=O)C(C)=C[C@@H]41)O2", "note": "[Resinferatoxin]", "values": [{"measurement": "potency relative to capsaicin", "setting": "C-fibers", "value": "~100", "unit": "fold"}]}, {"smiles": "CC(=O)NC1(c2ccccc2)CCN(CC[C@H](CN(C)C(=O)c2ccccc2)c2ccc(Cl)c(Cl)c2)CC1", "note": "[SR 48968]", "values": [{"measurement": "response in cyclophosphamide-induced model", "setting": "rats [4]; 10 nmol/rat", "value": "moderate response"}]}, {"smiles": "Cc1ccc(-c2c3n(c(=O)c4ncccc24)CC[C@@H](C)CN(Cc2cc(C(F)(F)F)cc(C(F)(F)F)c2)C3=O)cc1", "note": "[TAK-637]", "values": [{"measurement": "carbachol or electrical field stimulation induced contractions", "setting": "isolated bladder strips", "value": "had no effect"}, {"measurement": "micturition reflex induced by topical application of capsaicin onto the bladder dome", "setting": "guinea pig; guinea pig, in vivo", "value": "inhibited the micturition reflex"}, {"measurement": "distension-induced rhythmic bladder contractions", "setting": "guinea pig; guinea pig, systemic administration", "value": "decreased the number but not the amplitude"}, {"measurement": "spinal vesico-vesical reflex induced by electrical stimulation of the proximal cut end of the pelvic nerve", "setting": "guinea pig; spinal animals", "value": "inhibits the spinal vesico-vesical reflex"}, {"measurement": "micturition reflex induced by electrical stimulation of the rostral brainstem near the locus coeruleus", "setting": "decerebrate cats; 3 mg/kg i.v.", "value": "did not inhibit"}, {"measurement": "voiding efficiency", "setting": "decerebrate cats; decerebrate cats, 0.1, 0.3, 1 and 3 mg/kg i.v.", "value": "without any significant reduction in voiding efficiency"}, {"measurement": "maximal increase in bladder capacity", "setting": "decerebrate cats; decerebrate cats, 0.1, 0.3, 1 and 3 mg/kg i.v., dose-dependent", "value": 94, "unit": "%"}]}]}
